Measurements: US5885994A, “Tetrahydroquinoxaline dopamine D4 receptor antagonists” (Warner-Lambert Company, priority 1998, dated 1999)

How the values were obtained:
human D2 receptor = human D2 receptor (Homo sapiens, UniProt P14416); assay: Inhibition of [3H]spiperone binding to human dopamine D2 receptors; settings: human D2 (Long form), CHO K1 membranes
Text: A cell line expressing human dopamine D2 (Long form) receptors was purchased from Oregon Health Sciences University, Portland, Oreg. The D2 receptor cDNA was subcloned into an expression vector, pRc/CMV. The plasmids were transfected by electroporation into CHO K1 cells. A single stable transfectant, resistant to the antibiotic 418, was isolated and selected for use in the binding studies. For D4 binding, CHO K1 cells stably transfected to express the human recombinant dopamine D4.2 receptor subtype, as described by Shih, et al., "The expression and functional characterization of human dopamine D4.2 receptor in CHO K1 cells," Soc. Neurosci., 1995;21(Part 1):621.
CHO K1 cells expressing either human D2 and D4.2 receptors were grown in 162 cm^2 culture flasks in F12 medium (Gibco Laboratories, Grand Island, N.Y.) supplemented with 10% fetal bovine serum (FBS, Hyclone, Logan, Utah) in an atmosphere of 5% CO2 /95% air at 37° C. Cells were grown until confluent, after which growth medium was removed and replaced with 0.02% ethylene diamine tetracetate (EDTA) in a phosphate-buffered saline solution (Sigma Chemical Co., St. Louis, Mo.) and scraped from the flasks. The cells were centrifuged at about 1000×g for 10 minutes at […] and then resuspended in TEM buffer (25 mM Tris-HCl, pH 7.4, 5 mM EDTA, and 6 mM MgCl2) for D2 or the D4.2 buffer (50 mM Tris-HCl, pH 7.4, 5 mM EDTA, 1.5 mM CaCl2, 5 mM KCl, and 120 mM NaCl) and homogenized. The membranes were pelleted by centrifugation at 20,000×g at […] for 20 minutes. Then the pellets were resuspended in appropriate buffer at 1 mL/flask and stored at -70° C. until used in the receptor binding assay.
Receptor Binding Assays: D2,D4.2 Dopamine Receptors
After 60 minutes incubation at 25° C., the incubations were terminated by rapid filtration through Whatmann F/B lass fibre filters (soaked for 1 hour in 0.5% polyethylenimine) on a cell harvester, with three washes of 1 mL ice-cold buffer. Individual filter disks containing the bound ligand were placed in counting vials with 4 mL of scintillation fluid (Ready Gel, Beckman Instrument Inc., Fullerton, Calif.) and then counted in a Beckman LS-6800 liquid scintillation counter at an efficiency of 45%. Nonspecific binding was defined in presence of 1 mM of haloperidol.
Saturation and competition binding data were analyzed using an iterative nonlinear least-square curve-fitting Ligand program. In competition experiments, apparent Ki values were calculated from IC50 values by method of Cheng and Prusoff, "Relationship between the inhibition constant (Ki) and the concentration of inhibitor which causes 50% inhibition (IC50) of an enzymatic reaction," Biochem. Pharmacol., 1973;22:3099-3108. Experimental compounds were made up as stock solutions in dimethyl sulfoxide (DMSO). […] Each observation was carried out in triplicate. To allow these calculations, Ki values were measured for the interaction of various ligands with the receptor. […]

[1] = test system: apomorphine-induced disruption of prepulse inhibition; assay: Prepulse inhibition of acoustic startle model in rats; assay type: in vivo; settings: rat, 30 mg/kg IP
Text: PROTOCOL FOR THE PREPULSE INHIBITION OF ACOUSTIC STARTLE MODEL IN RATS
Prepulse inhibition (PPI) of acoustic startle is a form of sensorimotor gating which occurs when a weak stimulus precedes a startling stimulus, resulting in diminution of the startle response amplitude. […] Thus, an animal model utilizing this phenomenon would be quite useful in the study of known and potential antipsychotic agents.
This indicates a possible role of DA D2-like receptor stimulation in reducing sensorimotor gating in the rat.
Male Sprague-Dawley rats from Harlan Labs (180-280 g) were housed in groups of five rats per cage and maintained on a 12-hour light/dark cycle with free access to food pellets and water. […]
Eight startle chambers (SR-LAB, San Diego Instruments) were used, each consisting of a Plexiglas cylinder resting on a Plexiglas frame within a ventilated sound-attenuating enclosure. […] The average responses during the 100 msec record window (100×1 msec readings) were recorded by microcomputer and interface assembly (San Diego Instruments). […] Sound levels were assessed with a Radio Shack dB meter. […]
The test session in all experiments consisted of a total of 90 trials after a 5-minute test acclimation period of 70 dB white noise. […] When the prepulse was paired with the 120 dB pulse, no obvious acoustic difference could be detected by the human ear as compared to the 120 dB pulse alone. […]

[2] = test system: synthesis rates of rat brain catecholamines; settings: ip
Protocol: The effects of compounds on synthesis rates of rat brain catecholamines were estimated by measuring the accumulation of [3-(3,4-dihydroxyphenyl)-L-alanine (DOPA) after administration of the L-aromatic amino acid decarboxylase inhibitor, NSD 1015 (Pugsley, et al., 1995).
Test compounds were administered to rats i.p. 30 minutes before the injection of the L-aromatic amino acid decarboxylase inhibitor, NSD 1015 (100 mg/kg i.p.). Rats were sacrificed by decapitation 30 minutes later. The striatum and mesolimbic regions were rapidly dissected from the brains and stored at -70° C. until assayed. Synthesis rates of rat brain catecholamines were estimated by measuring the accumulation of the DA precursor DOPA after NSD 1015 administration by HPLC with electrochemical detection (Puglsey, et al., 1995). Each value represents the mean of four determinations and is expressed as a percent of the control values.

Chain of human D2 receptor (P14416 whole entry): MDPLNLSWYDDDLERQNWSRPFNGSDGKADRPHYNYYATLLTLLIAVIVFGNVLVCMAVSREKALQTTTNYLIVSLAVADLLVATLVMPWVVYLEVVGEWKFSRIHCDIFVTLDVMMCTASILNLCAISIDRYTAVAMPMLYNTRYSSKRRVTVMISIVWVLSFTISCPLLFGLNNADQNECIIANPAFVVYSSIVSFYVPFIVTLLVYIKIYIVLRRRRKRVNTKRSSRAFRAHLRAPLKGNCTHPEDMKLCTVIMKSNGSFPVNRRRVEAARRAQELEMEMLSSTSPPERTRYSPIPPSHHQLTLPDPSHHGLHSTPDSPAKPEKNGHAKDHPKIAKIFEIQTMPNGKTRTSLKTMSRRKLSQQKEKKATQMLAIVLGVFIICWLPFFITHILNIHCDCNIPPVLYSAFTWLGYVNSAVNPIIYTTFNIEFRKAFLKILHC

Cc1ccc(N2CCN(Cc3ccc4c(c3)NCCN4)CC2)cc1C [Example 2, 6-[4-(3,4-Dimethylphenyl)piperazin-1-ylmethyl]-1,2,3,4-tetrahydroquinoxaline]
IC50 (human D2 receptor): 2.94 µM | blockade of apomorphine-induced disruption of prepulse inhibition in the Acoustic Startle test [1]: significant blockade | DA Synthesis in Rat Hippocampus [2]: +52% of the control values | DA Synthesis in Rat Striatum [2]: +66% of the control values
